# In patent publication US4147787A, “4,5,6,7-Tetrahydro-thieno[2,3-c]-and [3,2-c]-pyridines, and therapeutic compositions containing the same” (Parcor, priority 1977, dated 1979):
# Legend:
# [1] = tested on: A.D.P. induced blood-platelet aggregation; assay: A.D.P. induced blood-platelet aggregation; assay type: in vivo, Wistar rats; details: Rattus norvegicus, po; 100 mg/kg orally, rats, 3 hours after treatment, 10 μM A.D.P. solution; read-out: Percent inhibition of blood-platelet aggregation, A.D.P.
# Experimental: (§1) A blood sample is taken from the jugular vein of Wistar rats. From this citrated blood and after centifugation, a plasma is reconstituted which contains 600,000 ± 20,000 blood-platelets per ml, which plasma is then used in all aggregation determinations.
# (§2) 0.4 ml plasma is placed in a siliconized tube provided with a magnet bar, also siliconized. The tube is introduced into an aggregometer connected to an apparatus which records optical density variations. When light transmission has attained a stable value, 0.5 ml of a solution containing 10 μM A.D.P. (adenosinediphosphate) is added to the tube.
# (§3) Blood-platelet aggregation induces an increase of light transmission, followed by a decrease subsequent to the deaggregation phase.
# (§4) Different groups of 20 rats each are used, each group being orally administered 100 mg/kg of a test derivative.
# [2] = tested on: Collagen-induced blood-platelet aggregation; assay: Collagen-induced blood-platelet aggregation; assay type: in vivo, Wistar rats; details: Rattus norvegicus, po; 100 mg/kg orally, rats, 3 hours after treatment; read-out: Percent inhibition of blood-platelet aggregation, Collagen
# Experimental: as §1, §2, §3
# The A.D.P. solution is substituted with a collagen (bovine tendon extract) solution.
# as §4
# [3] = tested on: rat globules (red corpuscles); assay: In vitro anti-sludge activity, curative procedure (protamine sulfate); assay type: cell-based; details: 25 μg
# Experimental: (§5) Said activity was investigated in vitro and in vivo in rats.
# (§6) Thrice washed rat globules are diluted to 1/250 in physiological saline. In each of 5 tubes are placed 0.6 ml of this suspension and 0.2 ml physiological saline. To each tube is then added 0-25-50-100 and 200 μg, respectively, of the test derivative contained in 0.2 ml solution. After incubation for one hour at 37° C., 0.2 ml of a solution containing 125 μg/ml protamine sulfate are added, after which the tube is then incubated again for 0.5 hour at 37° C. The globules of each tube are then examined with a Mallases cell, and the percent free globules and the percent aggregates formed by 2, 3, 4, 5 etc.. globules is then recorded.
# The experiment was repeated according to a "curvative" procedure; the red corpuscles were first contacted with protamine sulfate and, after incubation for 0.5 hour, 0.2 ml containing 25 μg of test derivative were added thereto, which operation is followed by another incubation for one hour at 37° C. The results obtained are reported in Table III, in which the percent agglomerates as a function of size is indicated.
# [4] = tested on: rat globules (red corpuscles); assay: In vitro anti-sludge activity, preventive treatment (protamine sulfate); assay type: cell-based
# Experimental: as §5, §6
smiles,measurement,setting,value
"O=C(O)[C@@H]1NCc2sccc2[C@@H]1O (relative stereo) [Example 5, 5-Carboxy-4-hydroxy-4,5,6,7-tetrahydro-thieno[2,3-c]pyridine]",inhibition at 100 mg/kg,[1],62.3%
same,inhibition at 100 mg/kg,[2],90.5%
same,"percent agglomerates, size 2",[3],11%
same,"percent agglomerates, size 3",[3],3%
same,"percent agglomerates, size 4",[3],0%
same,"percent agglomerates, size 5",[3],0%
same,"percent agglomerates, size 6",[3],0%
same,"percent agglomerates, size 7",[3],0%
same,"percent agglomerates, size 8",[3],0%
same,"percent agglomerates, size 9",[3],0%
same,"percent agglomerates, size 10",[3],0%
same,percent free red corpuscles (size of agglomerates 1),[3],86%
"O=C(OCc1ccccc1)[C@H]1[C@@H](O)c2sccc2CN1Cc1ccccc1 (relative stereo) [Example 7, 5-Benzyl-6-benzyloxycarbonyl-7-hydroxy-4,5,6,7-tetrahydro-thieno[3,2-c]pyridine]","percent agglomerates, size 2",[3],12%
same,"percent agglomerates, size 3",[3],3%
same,"percent agglomerates, size 4",[3],1%
same,"percent agglomerates, size 5",[3],0%
same,"percent agglomerates, size 6",[3],0%
same,"percent agglomerates, size 7",[3],0%
same,"percent agglomerates, size 8",[3],0%
same,"percent agglomerates, size 9",[3],0%
same,"percent agglomerates, size 10",[3],0%
same,percent free red corpuscles (size of agglomerates 1),[3],84%
"O=C(OCc1ccccc1Cl)[C@H]1[C@@H](O)c2sccc2CN1Cc1ccccc1Cl (relative stereo) [Example 8, 5-o-Chlorobenzyl-6-o-chlorobenzyloxycarbonyl-7-hydroxy-4,5,6,7-tetrahydro-thieno[3,2-c]pyridine]",inhibition at 100 mg/kg,[1],61.8%
same,inhibition at 100 mg/kg,[2],90.4%
"O=C(OCc1ccccc1F)[C@H]1[C@@H](O)c2ccsc2CN1Cc1ccccc1F (relative stereo) [Example 10, 4-Hydroxy-5-o-fluorobenzyloxycarbonyl-6-o-fluorobenzyl-4,5,6,7-tetrahydro-thieno[2,3-c]pyridine]",inhibition at 100 mg/kg,[1],62.2%
same,inhibition at 100 mg/kg,[2],92.1%
"O=C(OCc1ccccc1)[C@H]1[C@@H](O)c2ccsc2CN1Cc1ccccc1 (relative stereo) [Example 11, 4-Hydroxy-5-benzyloxycarbonyl-6-benzyl-4,5,6,7-tetrahydro-thieno[2,3-c]pyridine]",inhibition at 100 mg/kg,[1],60.5%
same,inhibition at 100 mg/kg,[2],91.6%
"O=C(O)C1Cc2sc(Cl)cc2CN1 (centres unmarked) [Example 4, 6-Carboxy-2-chloro-4,5,6,7-tetrahydro-thieno[3,2-c]pyridine]",inhibition at 100 mg/kg,[1],63.1%
same,inhibition at 100 mg/kg,[2],91.3%
"O=C(OCc1ccccc1)C1Cc2sccc2CN1Cc1ccccc1 (centres unmarked) [Example 12, 5-Benzyl-6-benzyloxycarbonyl-4,5,6,7-tetrahydro-thieno[3,2-c]pyridine]",inhibition at 100 mg/kg,[1],61.6%
same,inhibition at 100 mg/kg,[2],90.8%
"O=C(OCc1ccc([N+](=O)[O-])cc1)C1Cc2sccc2CN1Cc1ccc([N+](=O)[O-])cc1 (centres unmarked) [Example 15, 5-p-Nitrobenzyl-6-p-nitrobenzyloxycarbonyl-4,5,6,7-tetrahydro-thieno[3,2-c]pyridine]","percent agglomerates, size 2",[3],11%
same,"percent agglomerates, size 3",[3],2%
same,"percent agglomerates, size 4",[3],0%
same,"percent agglomerates, size 5",[3],0%
same,"percent agglomerates, size 6",[3],0%
same,"percent agglomerates, size 7",[3],0%
same,"percent agglomerates, size 8",[3],0%
same,"percent agglomerates, size 9",[3],0%
same,"percent agglomerates, size 10",[3],0%
same,percent free red corpuscles (size of agglomerates 1),[3],87%
"COc1cc(COC(=O)C2Cc3sccc3CN2Cc2cc(OC)c(OC)c(OC)c2)cc(OC)c1OC (centres unmarked) [Example 17, 5-(3,4,5-Trimethoxy-benzyl)-6-(3,4,5-trimethoxy-benzyl-oxycarbonyl)-4,5,6,7-tetrahydro-thieno[3,2-c]pyridine]",inhibition at 100 mg/kg,[1],61.2%
same,inhibition at 100 mg/kg,[2],92%
"O=C(OCc1ccccc1)C1Cc2ccsc2CN1Cc1ccccc1 (centres unmarked) [Example 20, 5-Benzyloxycarbonyl-6-benzyl-4,5,6,7-tetrahydro-thieno[2,3-c]pyridine]",inhibition at 100 mg/kg,[1],60.4%
same,inhibition at 100 mg/kg,[2],91.5%
"O=C(O)C1Cc2sc(Cl)cc2CN1Cc1ccccc1 (centres unmarked) [Example 26, 5-Benzyl-6-carboxy-2-chloro-4,5,6,7-tetrahydro-thieno[3,2-c]pyridine]","percent agglomerates, size 2",[3],12%
same,"percent agglomerates, size 3",[3],2%
same,"percent agglomerates, size 4",[3],0%
same,"percent agglomerates, size 5",[3],0%
same,"percent agglomerates, size 6",[3],0%
same,"percent agglomerates, size 7",[3],0%
same,"percent agglomerates, size 8",[3],0%
same,"percent agglomerates, size 9",[3],0%
same,"percent agglomerates, size 10",[3],0%
same,percent free red corpuscles (size of agglomerates 1),[3],86%
"CCOC(=O)C1Cc2sc(Cl)cc2CN1Cc1ccccc1 (centres unmarked) [Example 27, 2-Chloro-5-benzyl-6-ethoxycarbonyl-4,5,6,7-tetrahydro-thieno[3,2-c]pyridine]","percent agglomerates, size 2",[4]; 25 μg,16%
same,"percent agglomerates, size 3",[4]; 25 μg,17%
same,"percent agglomerates, size 4",[4]; 25 μg,5%
same,"percent agglomerates, size 5",[4]; 25 μg,0%
same,"percent agglomerates, size 6",[4]; 25 μg,0%
same,"percent agglomerates, size 7",[4]; 25 μg,0%
same,"percent agglomerates, size 8",[4]; 25 μg,0%
same,"percent agglomerates, size 9",[4]; 25 μg,0%
same,"percent agglomerates, size 10",[4]; 25 μg,0%
same,"percent agglomerates, size 11",[4]; 25 μg,0%
same,"percent agglomerates, size 12",[4]; 25 μg,0%
same,"percent agglomerates, size 13",[4]; 25 μg,0%
same,percent free red corpuscles (size of agglomerates 1),[4]; 25 μg,62%
same,"percent agglomerates, size 2",[4]; 50 μg,20%
same,"percent agglomerates, size 3",[4]; 50 μg,10%
same,"percent agglomerates, size 4",[4]; 50 μg,4%
same,"percent agglomerates, size 5",[4]; 50 μg,0%
same,"percent agglomerates, size 6",[4]; 50 μg,0%
same,"percent agglomerates, size 7",[4]; 50 μg,0%
same,"percent agglomerates, size 8",[4]; 50 μg,0%
same,"percent agglomerates, size 9",[4]; 50 μg,0%
same,"percent agglomerates, size 10",[4]; 50 μg,0%
same,"percent agglomerates, size 11",[4]; 50 μg,0%
same,"percent agglomerates, size 12",[4]; 50 μg,0%
same,"percent agglomerates, size 13",[4]; 50 μg,0%
same,percent free red corpuscles (size of agglomerates 1),[4]; 50 μg,66%
same,"percent agglomerates, size 2",[4]; 100 μg,15%
same,"percent agglomerates, size 3",[4]; 100 μg,7%
same,"percent agglomerates, size 4",[4]; 100 μg,3%
same,"percent agglomerates, size 5",[4]; 100 μg,0%
same,"percent agglomerates, size 6",[4]; 100 μg,0%
same,"percent agglomerates, size 7",[4]; 100 μg,0%
same,"percent agglomerates, size 8",[4]; 100 μg,0%
same,"percent agglomerates, size 9",[4]; 100 μg,0%
same,"percent agglomerates, size 10",[4]; 100 μg,0%
same,"percent agglomerates, size 11",[4]; 100 μg,0%
same,"percent agglomerates, size 12",[4]; 100 μg,0%
same,"percent agglomerates, size 13",[4]; 100 μg,0%
same,percent free red corpuscles (size of agglomerates 1),[4]; 100 μg,75%
same,"percent agglomerates, size 2",[4]; 200 μg,9%
same,"percent agglomerates, size 3",[4]; 200 μg,5%
same,"percent agglomerates, size 4",[4]; 200 μg,2%
same,"percent agglomerates, size 5",[4]; 200 μg,0%
same,"percent agglomerates, size 6",[4]; 200 μg,0%
same,"percent agglomerates, size 7",[4]; 200 μg,0%
same,"percent agglomerates, size 8",[4]; 200 μg,0%
same,"percent agglomerates, size 9",[4]; 200 μg,0%
same,"percent agglomerates, size 10",[4]; 200 μg,0%
same,"percent agglomerates, size 11",[4]; 200 μg,0%
same,"percent agglomerates, size 12",[4]; 200 μg,0%
same,"percent agglomerates, size 13",[4]; 200 μg,0%
same,percent free red corpuscles (size of agglomerates 1),[4]; 200 μg,84%
same,"percent agglomerates, size 2",[3],10%
same,"percent agglomerates, size 3",[3],3%
same,"percent agglomerates, size 4",[3],0%
same,"percent agglomerates, size 5",[3],0%
same,"percent agglomerates, size 6",[3],0%
same,"percent agglomerates, size 7",[3],0%
same,"percent agglomerates, size 8",[3],0%
same,"percent agglomerates, size 9",[3],0%
same,"percent agglomerates, size 10",[3],0%
same,percent free red corpuscles (size of agglomerates 1),[3],87%
"CCOC(=O)C1Cc2sccc2CN1C (centres unmarked) [Example 28, 5-Methyl-6-ethoxycarbonyl-4,5,6,7-tetrahydro-thieno[3,2-c]pyridine]",inhibition at 100 mg/kg,[1],60.8%
same,inhibition at 100 mg/kg,[2],90.2%
"COC(=O)C1Cc2sc(Cl)cc2CN1Cc1ccccc1Cl (centres unmarked) [Example 30, 2-Chloro-5-o.chlorobenzyl-6-methoxycarbonyl-4,5,6,7-tetrahydro-thieno[3,2-c]pyridine]",inhibition at 100 mg/kg,[1],62.4%
same,inhibition at 100 mg/kg,[2],93%
